Calls of active or inactive are those of the source.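 Rule for the calls: active = AC50, the dose giving half-maximal effect, exceeds a fixed cutoff for a compound that rescues yeast growth under heat; inactive = the rest, inconclusive results apart.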
Each compound was assayed on S. cerevisiae Burl-1 ts mutant growth, BacTiter-Glo, 38.5C 24 h (assay: growth induction of Burl-1 ts yeast mutant, dose response, counter-screen for SUMOylation pathway inhibitor project, whole organism, S. cerevisiae, luminescence (AID 463199)).

Compound	AC50
O=C(NCc1cccnc1)Nc1ccccc1	> 42 µM (inactive)
CCOC(=O)C1CCN(C(=O)c2ccc3c(c2)NC(=O)/C(=C/c2ccccc2)S3)CC1	> 42 µM (inactive)
Cc1ccc(-n2c(-c3ccco3)nc3c(cnn3-c3ccc(C)cc3)c2=O)cc1	> 42 µM (inactive)
O=[N+]([O-])c1cncc([N+](=O)[O-])c1Nc1ccccc1Cl	> 42 µM (inactive)
CC(C)(C)NC(=O)C1Cc2ccccc2CN1S(=O)(=O)c1ccc(F)cc1 (stereo unspecified)	> 42 µM (inactive)
COCCNC(=O)C(c1ccc(C)cc1)N(C(=O)CCC(=O)Nc1ccccn1)c1cccc(C)c1 (stereo unspecified)	> 42 µM (inactive)
CCN1CSC(=S)N(Cc2ccc(OC)cc2)C1	7.78 µM
Cc1cc(C(=O)COc2cccc3cccnc23)c(C)n1C	> 42 µM (inactive)
Cc1cccc(N=C2C(=O)Nc3c(Cl)cccc32)c1	> 42 µM (inactive)
CC(C)CCCN1CCN=C1Nc1ccccc1	> 42 µM (inactive)
O=C(CN1CCN(c2nc(-c3ccccc3)cs2)CC1)NNC(=O)c1ccc(Br)cc1	> 42 µM (inactive)
Cc1cc(C)n(CCCNC(=O)CN(C)S(=O)(=O)c2ccc(Cl)cc2)n1	> 42 µM (inactive)
COc1ccc(NC(=O)C2CCN(c3cc(C)nc(-c4ccccc4)n3)CC2)cc1	> 42 µM (inactive)
CCCN(CC1CC1)C(=O)COc1ccccc1C(=O)NCc1ccccc1	> 42 µM (inactive)
COc1cc(/C=C(\C#N)C(=O)Nc2ccc(C(=O)O)cc2)ccc1OC(=O)c1cccc(F)c1	> 42 µM (inactive)
COCC(=O)n1nc(-c2ccc(Cl)cc2)nc1NCc1ccc(F)cc1	> 42 µM (inactive)
CCC(CC)C(=O)N1CCCC(c2nc(-c3cccs3)no2)C1 (stereo unspecified)	> 42 µM (inactive)
O=C(CCC(=O)OCC(=O)c1ccc(Br)cc1)Nc1cccc2cccnc12	> 42 µM (inactive)
On1c(-c2ccccc2Cl)nc2ncccc21	> 42 µM (inactive)
CCc1nc2ccccc2c(C(=O)OC2CCCCC2=O)c1C (stereo unspecified)	> 42 µM (inactive)
Nc1ncnc2nc(SCC(=O)N3CCN(c4ccccc4)CC3)[nH]c12	> 42 µM (inactive)
CCCCCNC(=O)c1ccc2c(=O)n(CC3CCCO3)c(=O)[nH]c2c1 (stereo unspecified)	7.49 µM
CN(NC(=O)c1ccccc1F)c1nc(C(F)(F)F)nc2ccccc12	> 42 µM (inactive)
CC1(C)CC(=O)C(C(=O)c2ccccc2)C(=O)C1Cl (stereo unspecified)	> 42 µM (inactive)
CS(=O)(=O)N(CCc1ccccc1)CC(=O)NCc1cccnc1	> 42 µM (inactive)
COc1ccc(-n2c(C)cc(C(=O)CN3C(=O)NC4(CCCc5sccc54)C3=O)c2C)cc1 (stereo unspecified)	> 42 µM (inactive)

Compound	AC50
O=C(N/N=C/c1ccc(Cl)s1)c1ccccc1[N+](=O)[O-]	> 42 µM (inactive)
O=C1CC(=O)C(n2cncn2)C(c2ccc(Cl)cc2Cl)C1 (stereo unspecified)	> 42 µM (inactive)
CC(=O)c1c(Nc2cccc(F)c2)oc(C)cc1=O	> 42 µM (inactive)
CCOC(=O)CS(=O)(=O)c1ccc2ccccc2c1	> 42 µM (inactive)
COc1ccc(CN2CCCCCC2)cc1	> 42 µM (inactive)
Cc1c(O)ccc(C(=O)CN2C(=O)c3ccccc3C2=O)c1O	> 42 µM (inactive)
COc1cc(OC)c(C(=O)N2CCN(c3ccccn3)CC2)cc1OC	> 42 µM (inactive)
O=C(Nc1ccc2oc(-c3ccccc3F)nc2c1)c1ncn[nH]1	> 42 µM (inactive)
CS(=O)(=O)N(CC(=O)N1CCCCCC1)Cc1ccc(Cl)cc1	> 42 µM (inactive)
O=C(COC(=O)C1CC(=O)N(Cc2ccccc2)C1)Nc1ccccc1F (stereo unspecified)	> 21 µM (inactive)
COc1ccc2c(c1)OC[C@H]1[C@H]2N2C(=O)c3cc(Br)ccc3NC(=O)[C@@]2(C)[C@H]1c1ccccc1	> 42 µM (inactive)
O=C(N/C(=C/c1ccc2c(c1)OCO2)C(=O)N1CCOCC1)c1cccs1	> 42 µM (inactive)
Cc1ccc(C(=O)O)cc1N=Cc1cc(Br)cc(Br)c1O	> 42 µM (inactive)
COC(=O)c1[nH]c2cc(C)ccc2c1NC(=O)CN1CCN(c2ccccc2OC)CC1	> 21 µM (inactive)
Cn1c(SCC(=O)Nc2nnc(-c3ccccc3)o2)nnc1C1CC1	> 42 µM (inactive)
COC(C(=O)Nc1ccnn1C1CCN(Cc2cnn(C)c2)CC1)c1ccccc1 (stereo unspecified)	> 42 µM (inactive)
O=c1cc(-c2ccccc2)nc(N2CCN(Cc3ccccc3)CC2)[nH]1	> 42 µM (inactive)
CC(Oc1ccc([N+](=O)[O-])cc1)C(=O)NCCCN1CCOCC1 (stereo unspecified)	> 42 µM (inactive)
Cc1cccc(C(=O)NCC(=O)N2CCN(c3ccc(Cl)cc3)CC2)c1	> 42 µM (inactive)
O=C(c1cn(-c2ccccc2)nc1-c1cccs1)N1CCOCC1	> 42 µM (inactive)
O=C(CCCC(=O)N(CC(=O)NC1CCCC1)c1cccc(F)c1)Nc1ccccn1	> 42 µM (inactive)
Cc1cccc(/C=N/NC(=O)Cc2cccs2)c1	> 42 µM (inactive)
COc1ccccc1C(=O)N(NC(=O)Oc1ccccc1)C(C)(C)C	> 42 µM (inactive)
CCN1CCN(CC(=O)N2N=CCC2c2ccccc2)CC1 (stereo unspecified)	> 42 µM (inactive)
O=C(NCC(c1cccs1)N1CCOCC1)c1ccccc1NS(=O)(=O)c1cc([N+](=O)[O-])ccc1Cl (stereo unspecified)	> 42 µM (inactive)
Cc1ccc(C)c(NC(=S)NC(=O)c2cncc(Br)c2)c1	> 42 µM (inactive)

Compound	AC50
COc1ccc2c(Cl)c(C(=O)NN3CCN(C)CC3)sc2c1	> 42 µM (inactive)
O=C(OCc1nc2ccsc2c(=O)[nH]1)c1ccco1	> 42 µM (inactive)
Oc1c(Br)cc(Cl)cc1C=Nc1ccccc1Br	> 42 µM (inactive)
CN(C#N)c1nc(Cl)nc(Nc2cccc(Cl)c2)n1	> 42 µM (inactive)
CCCCCCC(C)n1[nH]c(=O)c2c(C)cc(=O)[nH]c21 (stereo unspecified)	> 42 µM (inactive)
CCOc1ccc(CCN2CN(C3CCCCC3)CNC2=S)cc1OCC	> 42 µM (inactive)
N#CC1=C(N)Nc2ncnn2C1c1ccc([N+](=O)[O-])cc1 (stereo unspecified)	> 42 µM (inactive)
CC(C)CNc1cc(=O)n(C)c(=O)n1C	> 42 µM (inactive)
OC(c1ccccc1)(C1CCCCC1)C(CN1CCOCC1)c1ccccc1 (stereo unspecified)	> 42 µM (inactive)
Nc1nc(SCc2nc3scc(-c4cccs4)c3c(=O)[nH]2)n[nH]1	> 42 µM (inactive)
CCOC(=O)c1cc(C#N)c(Oc2ccccc2OC)nc1-c1ccccc1	> 42 µM (inactive)
Cc1cccc(N2C(=O)CSC2c2cccnc2)c1 (stereo unspecified)	> 42 µM (inactive)
CCC(=O)Nc1ccc(Br)c(Cl)c1	> 42 µM (inactive)
Cc1cc(C)c(NC(=O)Cn2c([N+](=O)[O-])cnc2C)c(C)c1	> 42 µM (inactive)
Oc1c(Cl)cc(Cl)c(Cl)c1Cc1c(O)c(Cl)cc(Cl)c1Cl	> 42 µM (inactive)
CCS(=O)(=O)N1CCCC(C(=O)NCc2cccnc2)C1 (stereo unspecified)	> 42 µM (inactive)
Cc1noc(C)c1S(=O)(=O)N1CCCC(C(=O)NCC2CCCO2)C1 (stereo unspecified)	> 42 µM (inactive)
CCOc1ccc(Br)cc1S(=O)(=O)N1CCC(C(N)=O)CC1	> 42 µM (inactive)
COc1cc(SC)ccc1C(=O)N1CCCCCC1	> 42 µM (inactive)
N#Cc1ccc(Oc2ccc(S(=O)(=O)N3CCCCC3)cn2)cc1	> 42 µM (inactive)
COc1ccc(N2C(=O)CSC2c2ccc([N+](=O)[O-])cc2)cc1 (stereo unspecified)	> 42 µM (inactive)
O=C(Nc1nccs1)c1ccc(S(=O)(=O)c2ccccc2)cc1	> 42 µM (inactive)
COC(=O)c1ccc(SCC(=O)N2CCC(C)CC2)c([N+](=O)[O-])c1	> 42 µM (inactive)
COc1ccc(Cl)cc1NC(=O)C1CCCN(c2cc(C)nc3ncnn23)C1 (stereo unspecified)	> 42 µM (inactive)
N=c1n(CCCOc2ccc(Br)cc2)c2ccccc2n1CC(N)=O	> 42 µM (inactive)
CCOC(=O)Cn1c(C)c(Br)c(=O)c2cccc(C)c21	> 42 µM (inactive)

Compound	AC50
COc1ccc(NS(=O)(=O)c2cccc(C(=O)NCCCn3ccnc3)c2)cc1	> 42 µM (inactive)
CCc1c(C)c2ccc(OCC(=O)OC(C)C)c(C)c2oc1=O	> 42 µM (inactive)
C=CCNc1nnc(SC2CC(=O)N(c3ccc(OCCC)cc3)C2=O)s1 (stereo unspecified)	> 42 µM (inactive)
Cc1ccc(NC(=O)Cn2nc(C)c3ccccc3c2=O)cc1	> 42 µM (inactive)
COc1cccc(/C=C/C(=O)OCC(=O)Nc2ccc(Cl)cn2)c1	> 42 µM (inactive)
Cc1cccc(C)c1NC(=O)C1(N(Cc2ccco2)C(=O)CC2NC(=O)NC2=O)CCCCC1 (stereo unspecified)	> 42 µM (inactive)
O=S(=O)(NCc1cccc(C(F)(F)F)c1)NCc1ccccc1F	> 42 µM (inactive)
CSc1cccc(N2C(=O)C3CCCN3C2=S)c1 (stereo unspecified)	> 42 µM (inactive)
Cc1ccc(S(=O)(=O)NCC(C)n2cncn2)cc1 (stereo unspecified)	> 42 µM (inactive)
COCc1nnc(NC(=O)CC(C)C)s1	> 42 µM (inactive)
COc1ccc(N2CCN(C3CCCN(Cc4cccc(OC)c4)C3)CC2)cc1 (stereo unspecified)	> 42 µM (inactive)
Cc1cc(NC(=O)/C=C/c2ccco2)ccc1NC(=O)c1ccccc1	> 42 µM (inactive)
COc1ccc(C)cc1NC(=S)N1CCN(c2ccccn2)CC1	> 42 µM (inactive)
O=C1c2nccnc2C(=O)N1c1ccc(C(F)(F)F)cc1	> 42 µM (inactive)
COc1ccc(/C=N\Nc2ccc([N+](=O)[O-])cc2)c(C(=O)O)c1OC	> 42 µM (inactive)
Cc1c(C(=O)N2CCOCC2)c(S(=O)(=O)Nc2cccc(Br)c2)c(C)n1C	> 42 µM (inactive)
O=C(Cc1ccccc1)N1CCCC1c1ccccc1 (stereo unspecified)	> 42 µM (inactive)
CNC(=O)c1ccccc1NC(=O)c1c(O)c2c([nH]c1=O)CCCC2	> 42 µM (inactive)
O=C(CSc1nnc(-c2cccs2)n1-c1ccccc1)c1ccc2c(c1)OCCO2	> 42 µM (inactive)
Cc1cc(C)cc(OCC(=O)Nc2ccc(N3CCN(C(=O)c4ccco4)CC3)cc2)c1	> 42 µM (inactive)
C=C1C2C[C@@]3([C@@H]1O)[C@@H](C[C@@H]2O)[C@@]12C4[C@@H]3C[C@@H]1[C@@](C)(CC[C@@H]2O)CN4CC	> 42 µM (inactive)
Nc1cccc2c1C(=O)N(c1ccccc1)C2=O	> 42 µM (inactive)
O=C(CN1CCN(C(=O)c2ccccc2)CC1)Nc1ncc(Br)cc1Br	> 42 µM (inactive)

From PubChem BioAssay AID463199 (Broad Institute, 2010)
